Measured values as given in BindingDB's records for doi:10.1016/j.bmcl.2005.11.092 (Astrazeneca R&D, 2006).

target: Metabotropic glutamate receptor 5 (Homo sapiens, UniProt P41594); assay: Inhibition of glutamate-induced calcium influx in human mGluR5d by FLIPR
Sequence (P41594 whole entry): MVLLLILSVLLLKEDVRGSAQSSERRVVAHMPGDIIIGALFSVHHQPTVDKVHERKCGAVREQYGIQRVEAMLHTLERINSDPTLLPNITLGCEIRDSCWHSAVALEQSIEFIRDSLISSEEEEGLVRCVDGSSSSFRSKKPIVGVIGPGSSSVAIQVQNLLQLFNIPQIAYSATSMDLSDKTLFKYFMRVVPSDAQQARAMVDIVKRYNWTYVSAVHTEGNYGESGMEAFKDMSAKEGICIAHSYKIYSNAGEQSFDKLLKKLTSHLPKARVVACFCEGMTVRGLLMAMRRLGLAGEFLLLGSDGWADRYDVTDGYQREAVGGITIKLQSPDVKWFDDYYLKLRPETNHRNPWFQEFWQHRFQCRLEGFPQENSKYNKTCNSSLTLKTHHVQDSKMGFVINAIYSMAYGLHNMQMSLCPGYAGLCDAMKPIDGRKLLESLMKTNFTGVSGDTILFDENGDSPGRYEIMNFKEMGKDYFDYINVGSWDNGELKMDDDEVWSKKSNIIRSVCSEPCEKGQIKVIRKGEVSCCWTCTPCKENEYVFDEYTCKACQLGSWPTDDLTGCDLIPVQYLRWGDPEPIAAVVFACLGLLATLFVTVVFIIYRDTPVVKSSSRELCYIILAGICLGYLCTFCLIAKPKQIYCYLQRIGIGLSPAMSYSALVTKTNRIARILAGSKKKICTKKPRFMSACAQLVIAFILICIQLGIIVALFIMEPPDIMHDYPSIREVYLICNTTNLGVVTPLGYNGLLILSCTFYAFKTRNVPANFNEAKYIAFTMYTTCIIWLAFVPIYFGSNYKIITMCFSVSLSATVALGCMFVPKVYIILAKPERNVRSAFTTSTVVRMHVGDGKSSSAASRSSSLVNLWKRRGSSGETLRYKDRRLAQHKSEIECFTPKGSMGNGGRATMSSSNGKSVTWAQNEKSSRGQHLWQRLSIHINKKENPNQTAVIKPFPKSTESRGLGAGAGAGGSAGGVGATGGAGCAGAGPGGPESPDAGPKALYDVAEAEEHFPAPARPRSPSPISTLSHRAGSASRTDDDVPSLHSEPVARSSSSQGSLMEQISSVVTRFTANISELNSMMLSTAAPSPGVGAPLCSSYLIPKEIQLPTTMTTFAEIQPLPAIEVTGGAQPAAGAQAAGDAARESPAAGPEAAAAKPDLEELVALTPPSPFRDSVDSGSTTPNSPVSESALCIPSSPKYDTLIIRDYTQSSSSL

SMILES | IC50 [µM]
Cn1cc(O)nc1NC(=O)Nc1cccs1 [1-(1-methyl-4-oxoimidazolidin-2-ylidene)-3-(thiophen-2-yl)urea] | 4.9
Cc1ccccc1NC(=O)Nc1nc(O)c2n1CCC2 [1-(1-oxo-hexahydropyrrolo[1,2-e]imidazol-3-ylidene)-3-o-tolylurea] | > 10
Cc1cccc(NC(=O)Nc2nc(O)c3n2CCC3)c1C [1-(2,3-dimethylphenyl)-3-(1-oxo-hexahydropyrrolo[1,2-e]imidazol-3-ylidene)urea] | > 10
Cc1ccc(C)c(NC(=O)Nc2nc(O)c3n2CCC3)c1 [1-(2,5-dimethylphenyl)-3-(1-oxo-hexahydropyrrolo[1,2-e]imidazol-3-ylidene)urea] | > 10
Cn1cc(O)nc1NC(=O)Nc1cc(Cl)cc(Cl)c1 [1-(3,5-dichlorophenyl)-3-(1-methyl-4-oxoimidazolidin-2-ylidene)urea] | > 10
Cc1ccc(NC(=O)Nc2nc(O)c3n2CCC3)cc1Cl [1-(3-chloro-4-methylphenyl)-3-(1-oxo-hexahydropyrrolo[1,2-e]imidazol-3-ylidene)urea] | > 10
O=C(Nc1ccc(Cl)cc1)Nc1nc(O)c2n1CCC2 [1-(4-chlorophenyl)-3-(1-oxo-hexahydropyrrolo[1,2-e]imidazol-3-ylidene)urea] | > 10
CCCCCCNC(=O)Nc1nc(O)cn1C [1-hexyl-3-(1-methyl-4-oxoimidazolidin-2-ylidene)urea] | > 10
Cn1cc(O)nc1NC(=O)Nc1ccccc1 [(E)-1-(1-methyl-4-oxoimidazolidin-2-ylidene)-3-phenylurea] | 4.9
COC(=O)c1cccc(NC(=O)Nc2nc(O)cn2C)c1 [methyl 3-(3-(1-methyl-4-oxoimidazolidin-2-ylidene)ureido)benzoate] | > 10
